From US10562905B2, “Carboxy tetrahydropyrazolopyrazine compounds for the treatment of infectious diseases” (Hoffmann-La Roche Inc., priority 2016, dated 2020)

Test system: HBV
Assay: HBV inhibition assay in HepG2.2.15 cells (qPCR of extracellular HBV DNA)
Type: cell-based, Hepatitis B virus
Settings: extracellular HBV DNA by qPCR, five days after compound treatment
From the text: HepG2.2.15 is a stably-transfected cell line containing the HBV genome. It is derived from the hepatoblastoma cell line Hep G2 (American Type Culture Collection, ATCC® HB-8065™) by the published procedures described in reference: MA Selles et al. Proc. Natl. Acad. Sci. USA 1987, 84, 1005-1009. The cell line was maintained in Dulbecco's modified Eagle's medium and nutrient mixture F-12 (DMEM/F-12, Gibco, Cat.#: 11320-033) supplemented with 10% fetal bovine serum (Gibco, Cat.#:10099-141), 100 U/mL penicillin, 100 μg/mL streptomycin (Gibco, Cat.#:15140-122), and 0.3 mg/mL of G418 Sulfate (Gibco, Cat.#: 10131-027).
HepG2.2.15 cells were seeded into 96-well plates at a density of 3×10^4 cells per well in culture media of 100 μL DMEM/F-12 supplemented with 2.5% fetal bovine serum, 100 U/mL penicillin, 100 μg/mL streptomycin and cultured overnight at 37° C. The test compounds were serially half-log diluted in DMSO, then diluted 100 times in culture media. 100 μL culture media containing diluted compounds were added into the plates to reach 0.5% final concentration of DMSO in every well. Five days after compound treatment, culture supernatant was collected for further analysis.
For quantitative PCR detection of extracellular HBV DNA, culture supernatant was processed by 500 μg/mL Proteinase K (Sigma, Cat.#:P2308) digestion at 50° C. for 1 hour. After heat inactivation of the enzyme at 95° C. for 15 minutes, the samples were subjected to HBV DNA quantification by qPCR. The effective compound concentration at which HBV replication was inhibited by 50% (EC50) was determined.

[1] = Hepatitis B virus, HepG2.2.15, 120 h

| Structure (SMILES) | EC50 | EC50 [1] |
| --- | --- | --- |
| C[C@H]1Cn2ncc(N3CC(c4ccccc4C(=O)O)CC3=O)c2CN1C(=O)Nc1cc(F)c(F)c(F)c1 (single isomer, unassigned) [Example 7-1] | 34 nM |  |
| C[C@H]1Cn2ncc(N3CC(c4ccccc4C(=O)O)CC3=O)c2CN1C(=O)Nc1cc(F)c(F)c(F)c1 (single isomer, unassigned) [Example 7-2] | 14 nM |  |
| C[C@H]1Cn2ncc(N3CC(c4c(F)cccc4C(=O)O)CC3=O)c2CN1C(=O)Nc1cc(F)c(F)c(F)c1 (single isomer, unassigned) [Example 10-1] | 106 nM |  |
| C[C@H]1Cn2ncc(N3CC(c4c(F)cccc4C(=O)O)CC3=O)c2CN1C(=O)Nc1cc(F)c(F)c(F)c1 (single isomer, unassigned) [Example 10-2] | 17 nM |  |
| C[C@H]1Cn2ncc(N3CC(c4cccc(F)c4C(=O)O)CC3=O)c2CN1C(=O)Nc1cc(F)c(F)c(F)c1 (single isomer, unassigned) [Example 11-1] | 312 nM |  |
| C[C@H]1Cn2ncc(N3CC(c4cccc(F)c4C(=O)O)CC3=O)c2CN1C(=O)Nc1cc(F)c(F)c(F)c1 (single isomer, unassigned) [Example 11-2] | 77 nM |  |
| C[C@H]1Cn2ncc(N3CC(N4CCC[C@H]4C(=O)O)CC3=O)c2CN1C(=O)Nc1cc(F)c(F)c(F)c1 (stereo partly drawn) [Example 1, (2S)-1-[1-[(6S)-6-methyl-5-[(3,4,5-trifluorophenyl)carbamoyl]-6,7-dihydro-4H-pyrazolo[1,5-a]pyrazin-3-yl]-5-oxo-pyrrolidin-3-yl]pyrrolidine-2-carboxylic acid] |  | 126 nM |
| C[C@H]1Cn2ncc(N3C(=O)CC(N4CCC[C@H]4C(=O)O)[C@@H]3C)c2CN1C(=O)Nc1cc(F)c(F)c(F)c1 (stereo partly drawn) [Example 2, (2S)-1-[(2S)-2-methyl-1-[(6S)-6-methyl-5-[(3,4,5-trifluorophenyl)carbamoyl]-6,7-dihydro-4H-pyrazolo[1,5-a]pyrazin-3-yl]-5-oxo-pyrrolidin-3-yl]pyrrolidine-2-carboxylic acid] |  | 98 nM |
| C[C@H]1Cn2ncc(N3CC(N(C)CC(=O)O)CC3=O)c2CN1C(=O)Nc1cc(F)c(F)c(F)c1 (stereo partly drawn) [Example 3, 2-[Methyl-[1-[(6S)-6-methyl-5-[(3,4,5-trifluorophenyl)carbamoyl]-6,7-dihydro-4H-pyrazolo[1,5-a]pyrazin-3-yl]-5-oxo-pyrrolidin-3-yl]amino]acetic acid] |  | 139 nM |
| C[C@H]1Cn2ncc(N3C(=O)CC(N4CCC[C@@H]4C(=O)O)[C@@H]3C)c2CN1C(=O)Nc1cc(F)c(F)c(F)c1 (stereo partly drawn) [Example 4, (2R)-1-[(2S)-2-methyl-1-[(6S)-6-methyl-5-[(3,4,5-trifluorophenyl)carbamoyl]-6,7-dihydro-4H-pyrazolo[1,5-a]pyrazin-3-yl]-5-oxo-pyrrolidin-3-yl]pyrrolidine-2-carboxylic acid] |  | 105 nM |
| C[C@H]1Cn2ncc(N3CC(N4CCC(C(=O)O)C4)CC3=O)c2CN1C(=O)Nc1cc(F)c(F)c(F)c1 (stereo partly drawn) [Example 5, 1-[1-[(6S)-6-methyl-5-[(3,4,5-trifluorophenyl)carbamoyl]-6,7-dihydro-4H-pyrazolo[1,5-a]pyrazin-3-yl]-5-oxo-pyrrolidin-3-yl]pyrrolidine-3-carboxylic acid] |  | 240 nM |
| C[C@H]1[C@H](C)n2ncc(N3CC(N4CCC[C@H]4C(=O)O)CC3=O)c2CN1C(=O)Nc1cc(F)c(F)c(F)c1 (stereo partly drawn) [Example 6-1, (2S)-1-[1-[(6S,7S)-6,7-dimethyl-5-[(3,4,5-trifluorophenyl)carbamoyl]-6,7-dihydro-4H-pyrazolo[1,5-a]pyrazin-3-yl]-5-oxo-pyrrolidin-3-yl]pyrrolidine-2-carboxylic acid] |  | 112 nM |
| C[C@H]1[C@H](C)n2ncc(N3CC(N4CCC[C@H]4C(=O)O)CC3=O)c2CN1C(=O)Nc1cc(F)c(F)c(F)c1 (stereo partly drawn) [Example 6-2, (2S)-1-[1-[(6S,7S)-6,7-dimethyl-5-[(3,4,5-trifluorophenyl)carbamoyl]-6,7-dihydro-4H-pyrazolo[1,5-a]pyrazin-3-yl]-5-oxo-pyrrolidin-3-yl]pyrrolidine-2-carboxylic acid] | 99 nM |  |
| C[C@H]1Cn2ncc(N3CC(c4ccccc4C(=O)O)CC3=O)c2CN1C(=O)Nc1cc(F)c(F)c(F)c1 (stereo partly drawn) [Example 7, 2-[1-[(6S)-6-methyl-5-[(3,4,5-trifluorophenyl)carbamoyl]-6,7-dihydro-4H-pyrazolo[1,5-a]pyrazin-3-yl]-5-oxo-pyrrolidin-3-yl]benzoic acid] |  | 22 nM |
| C[C@H]1Cn2ncc(N3CC(c4cccc(C(=O)O)c4)CC3=O)c2CN1C(=O)Nc1cc(F)c(F)c(F)c1 (stereo partly drawn) [Example 8, 3-[1-[(6S)-6-methyl-5-[(3,4,5-trifluorophenyl)carbamoyl]-6,7-dihydro-4H-pyrazolo[1,5-a]pyrazin-3-yl]-5-oxo-pyrrolidin-3-yl]benzoic acid] |  | 89 nM |
| C[C@H]1Cn2ncc(N3CC(N4CCC[C@@H]4C(=O)O)CC3=O)c2CN1C(=O)Nc1cc(F)c(F)c(F)c1 (stereo partly drawn) [Example 9, (2R)-1-[1-[(6S)-6-methyl-5-[(3,4,5-trifluorophenyl)carbamoyl]-6,7-dihydro-4H-pyrazolo[1,5-a]pyrazin-3-yl]-5-oxo-pyrrolidin-3-yl]pyrrolidine-2-carboxylic acid] |  | 124 nM |
| C[C@H]1Cn2ncc(N3CC(Nc4ccccc4C(=O)O)CC3=O)c2CN1C(=O)Nc1cc(F)c(F)c(F)c1 (stereo partly drawn) [Example 12, 2-[[1-[(6S)-6-methyl-5-[(3,4,5-trifluorophenyl)carbamoyl]-6,7-dihydro-4H-pyrazolo[1,5-a]pyrazin-3-yl]-5-oxo-pyrrolidin-3-yl]amino]benzoic acid] |  | 288 nM |
| C[C@H]1Cn2ncc(N3CC4COCC(C3=O)N4CC(=O)O)c2CN1C(=O)Nc1cc(F)c(F)c(F)c1 (stereo partly drawn) [Example 13, 2-[7-[(6S)-6-methyl-5-[(3,4,5-trifluorophenyl)carbamoyl]-6,7-dihydro-4H-pyrazolo[1,5-a]pyrazin-3-yl]-6-oxo-3-oxa-7,9-diazabicyclo[3.3.1]nonan-9-yl]acetic acid] |  | 99 nM |
| C[C@H]1Cn2ncc(N3CC(c4cc(F)ccc4C(=O)O)CC3=O)c2CN1C(=O)Nc1cc(F)c(F)c(F)c1 (stereo partly drawn) [Example 14, 4-Fluoro-2-[1-[(6S)-6-methyl-5-[(3,4,5-trifluorophenyl)carbamoyl]-6,7-dihydro-4H-pyrazolo[1,5-a]pyrazin-3-yl]-5-oxo-pyrrolidin-3-yl]benzoic acid] |  | 30 nM |
| C[C@H]1Cn2ncc(N3CC(c4ccc(F)cc4C(=O)O)CC3=O)c2CN1C(=O)Nc1cc(F)c(F)c(F)c1 (stereo partly drawn) [Example 15, 5-Fluoro-2-[1-[(6S)-6-methyl-5-[(3,4,5-trifluorophenyl)carbamoyl]-6,7-dihydro-4H-pyrazolo[1,5-a]pyrazin-3-yl]-5-oxo-pyrrolidin-3-yl]benzoic acid] |  | 57 nM |
| C[C@H]1Cn2ncc(N3CC(c4ccc(C(=O)O)cc4)CC3=O)c2CN1C(=O)Nc1cc(F)c(F)c(F)c1 (stereo partly drawn) [Example 16, 4-[1-[(6S)-6-methyl-5-[(3,4,5-trifluorophenyl)carbamoyl]-6,7-dihydro-4H-pyrazolo[1,5-a]pyrazin-3-yl]-5-oxo-pyrrolidin-3-yl]benzoic acid] |  | 228 nM |
| C[C@H]1Cn2ncc(N3CC(c4ncccc4C(=O)O)CC3=O)c2CN1C(=O)Nc1cc(F)c(F)c(F)c1 (stereo partly drawn) [Example 18, 2-[1-[(6S)-6-methyl-5-[(3,4,5-trifluorophenyl)carbamoyl]-6,7-dihydro-4H-pyrazolo[1,5-a]pyrazin-3-yl]-5-oxo-pyrrolidin-3-yl]pyridine-3-carboxylic acid] |  | 102 nM |
